Measurements: ChEMBL document CHEMBL5726701, “Pyrazine derivatives as phosphatidylinositol 3-kinase inhibitors” (2018)

Biological target: Phosphatidylinositol 3-kinase catalytic subunit type 3 (Homo sapiens, UniProt Q8NEB9)
Assay: Kinase Glo Luminescent Kinase Assay: PI 3-Kinase Alpha (A), Pb 3-Kinase Beta (B), Vps34 (C), PI 4-Kinase Beta (D):The luminescence-based ATP detection reagent KinaseGlo was obtained from Promega, (Cat. No. V6714, Lot No. 236161) through Catalys, Wallisellen, Switzerland. L-alpha-phosphatidylinositol (PI, liver, bovine) was obtained from Avanti Polar Lipid (Cat. No. 840042C, Lot#LPI-274), Phosphatidylinositol-4,5-bisphosphate (PIP(4,5)2) was also obtained from Avanti Polar Lipid (Cat. No. 840046X). L-α-Phosphatidylserine (PS) was obtained from Avanti Polar Lipid (Cat. No. 840032C), n-Octylglucoside from Avanti Polar Lipid (Cat. No. 10634425001). Luminescence is a well established readout to determine ATP concentrations and can thus be used to follow the activity of many kinases regardless of their substrate. The Kinase Glo Luminescent Kinase Assay (Promega, Madison/WI, USA) is a homogeneous HTS method of measuring kinase activity by quantifying the amount of ATP remaining in solution following a kinase reaction.

Chain of Phosphatidylinositol 3-kinase catalytic subunit type 3 (Q8NEB9 whole entry): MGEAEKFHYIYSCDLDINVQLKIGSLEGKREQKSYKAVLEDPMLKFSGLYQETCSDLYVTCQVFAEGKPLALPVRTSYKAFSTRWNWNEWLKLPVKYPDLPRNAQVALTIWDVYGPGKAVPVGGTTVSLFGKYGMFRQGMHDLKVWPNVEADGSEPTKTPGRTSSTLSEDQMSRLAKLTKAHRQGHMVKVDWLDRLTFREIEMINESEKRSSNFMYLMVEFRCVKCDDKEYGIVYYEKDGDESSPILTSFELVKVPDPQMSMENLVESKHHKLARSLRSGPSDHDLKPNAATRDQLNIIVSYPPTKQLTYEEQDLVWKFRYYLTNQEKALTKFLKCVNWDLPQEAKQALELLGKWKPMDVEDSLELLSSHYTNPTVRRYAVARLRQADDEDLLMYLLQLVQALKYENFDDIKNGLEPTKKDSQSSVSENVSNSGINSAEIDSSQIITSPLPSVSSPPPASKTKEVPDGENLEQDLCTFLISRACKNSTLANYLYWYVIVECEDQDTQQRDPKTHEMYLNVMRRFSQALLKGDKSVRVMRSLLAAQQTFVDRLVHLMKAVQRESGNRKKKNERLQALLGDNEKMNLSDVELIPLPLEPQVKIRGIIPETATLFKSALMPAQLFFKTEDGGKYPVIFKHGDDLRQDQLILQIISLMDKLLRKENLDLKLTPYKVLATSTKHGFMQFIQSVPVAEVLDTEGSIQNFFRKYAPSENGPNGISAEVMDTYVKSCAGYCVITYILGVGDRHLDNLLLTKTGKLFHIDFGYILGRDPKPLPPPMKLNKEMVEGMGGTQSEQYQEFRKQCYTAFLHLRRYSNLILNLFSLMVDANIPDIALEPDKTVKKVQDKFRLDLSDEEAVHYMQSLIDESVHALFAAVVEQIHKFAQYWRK

Row | SMILES | IC50 [µM]
1 | Cc1ccc(S(=O)(=O)N[C@H]2CC[C@H](O)CC2)cc1-c1cncc(-c2csc(CN3CCOCC3)c2)n1 | 8.6
2 | Cc1ccc(S(=O)(=O)NC2CC3(CC(O)C3)C2)cc1-c1cncc(-c2cn(C)nc2C)n1 (centres undefined) | 9.4
3 | Cc1cc(-c2cncc(-c3cc(S(=O)(=O)NC[C@H]4C[C@@H](O)C4)ccc3C)n2)n(C)n1 | 2.45
4 | Cc1ccc(S(=O)(=O)NC[C@H]2C[C@@H](O)C2)cc1-c1cncc(-c2cn(C)nc2C)n1 | 4.4
